Several values for one entry are separate records, joined by “and”; a condition that tells them apart may be missing. Equal values may be shown once.
How the values were obtained:
Format in all cases: functional, Homo sapiens
[1] = tested on: TERT-RPE1; assay: (§1) Here: values are normalized to the negative (DMSO; defined as 0% autophagy induction) and positive (250nM Torin1; mTOR inhibitor; defined as maximal inducer of autophagy = 100%) control compounds and represented as % of autophagy induction. […] The impact of autophagy induction on cells is complex and depends on the affected target. As such, the magnitude of a phenotype may not be equally mirrored in the %-value of autophagy induction and vice versa. The dynamics of the induction may indicate the mode of activation: e.g. activation via phosphorylation or a signaling cascade may occur fast, while activation via transcription factors may take considerably longer. […] Of note, treatment concentrations may be sub-optimal for specific compounds, leading to false negative annotations.; conditions: Culturing Media DMEM/F12 (1:1), 1 % Penicillin/Streptomycin, 10% Fetal bovin serum Add-On: No, Screening Media Control DMEM/F12 (1:1), Screening Media Samples DMEM/F12 (1:1)
[2] = tested on: U2OS; assay: as §1; conditions: Culturing Media DMEM, 1 % Penicillin/Streptomycin, 10% Fetal bovin serum Add-On: No, Screening Media Control DMEM, Screening Media Samples DMEM
[3] = tested on: U2OS; assay: as §1; conditions: Culturing Media DMEM, 1 % Penicillin/Streptomycin, 10% Fetal bovin serum Add-On: No, Screening Media Control DMEM, Screening Media Samples DMEM; remark: listed apart in the source
[4] = Compound Concentration 0.5 uM, Timepoint 12 hours, 12 h, 0.5 µM
[5] = Compound Concentration 0.5 uM, Timepoint 24 hours, 24 h, 0.5 µM
[6] = Compound Concentration 0.5 uM, Timepoint 36 hours, 36 h, 0.5 µM
[7] = Compound Concentration 0.5 uM, Timepoint 60 hours, 60 h, 0.5 µM
[8] = Compound Concentration 2 uM, Timepoint 12 hours, 12 h, 2 µM
[9] = Compound Concentration 2 uM, Timepoint 24 hours, 24 h, 2 µM
[10] = Compound Concentration 2 uM, Timepoint 36 hours, 36 h, 2 µM
[11] = Compound Concentration 2 uM, Timepoint 60 hours, 60 h, 2 µM
[12] = Compound Concentration 10 uM, Timepoint 12 hours, 12 h, 10 µM
[13] = Compound Concentration 10 uM, Timepoint 24 hours, 24 h, 10 µM
[14] = Compound Concentration 0.5 uM, Timepoint 12 hours
[15] = Compound Concentration 0.5 uM, Timepoint 24 hours
[16] = Compound Concentration 0.5 uM, Timepoint 36 hours
[17] = Compound Concentration 0.5 uM, Timepoint 60 hours
[18] = Compound Concentration 2 uM, Timepoint 12 hours
[19] = Compound Concentration 2 uM, Timepoint 24 hours
[20] = Compound Concentration 2 uM, Timepoint 36 hours
[21] = Compound Concentration 2 uM, Timepoint 60 hours
[22] = Compound Concentration 10 uM, Timepoint 12 hours
[23] = Compound Concentration 10 uM, Timepoint 24 hours
[24] = Compound Concentration 10 uM, Timepoint 36 hours
[25] = Compound Concentration 10 uM, Timepoint 60 hours

**Q.** What does the source list for `Cl.Clc1cccc(COc2cncc(N3CCNCC3)n2)c1`?
**A.** autophagy induction [1, 4]: -4.107% and -8.741%; autophagy induction [1, 5]: -3.275% and -10.2873%; autophagy induction [1, 6]: -5.346% and -10.5791%; autophagy induction [1, 7]: -7.219% and -10.0498%; autophagy induction [1, 8]: 0.7021% and -1.765%; autophagy induction [1, 9]: 0.6926% and -5.584%; autophagy induction [1, 10]: 0.3671% and -11.5088%; autophagy induction [1, 11]: -2.572% and -13.6901%; autophagy induction [1, 12]: 10.122% and -0.2214%; autophagy induction [1, 13]: 9.832% and 0.1054%; autophagy induction ([1]; Compound Concentration 10 uM, Timepoint 36 hours, 36 h, 10 µM): 9.982% and -0.986%; autophagy induction ([1]; Compound Concentration 10 uM, Timepoint 60 hours, 60 h, 10 µM): 11.761% and 2.73%; autophagy induction [2, 14]: 7.085%; autophagy induction [2, 15]: -1.5773%; autophagy induction [2, 16]: -58.983%; autophagy induction [2, 17]: -0.334%; autophagy induction [2, 18]: 2.459%; autophagy induction [2, 19]: 2.019%; autophagy induction [2, 20]: -56.8827%; autophagy induction [2, 21]: 0.5358%; autophagy induction [2, 22]: -3.089%; autophagy induction [2, 23]: 5.923%; autophagy induction [2, 24]: -56.0685%; autophagy induction [2, 25]: -1.858%; autophagy induction [3, 14]: -8.837%; autophagy induction [3, 15]: -13.8803%; autophagy induction [3, 16]: -7.736%; autophagy induction [3, 17]: -11.4823%; autophagy induction [3, 18]: 2.897%; autophagy induction [3, 19]: 5.801%; autophagy induction [3, 20]: -1.494%; autophagy induction [3, 21]: -5.088%; autophagy induction [3, 22]: 27.4058%; autophagy induction [3, 23]: 16.7462%; autophagy induction [3, 24]: 7.428%; autophagy induction [3, 25]: 3.616%

**Q.** Which autophagy induction [1, 4] does the source give for `C[C@@H](NCCc1ccc(O)cc1)[C@@H](O)c1ccc(O)cc1.Cl` (relative stereo) here?
**A.** 5.631% and 0.2084%

**Q.** What about the autophagy induction [1, 5] of the same compound?
**A.** 6.073% and -4.011%

**Q.** What about the autophagy induction [1, 6] of the same compound?
**A.** 3.7656% and -2.603%

**Q.** What about the autophagy induction [1, 7] of the same compound?
**A.** -3.104% and -1.391%

**Q.** What about the autophagy induction [1, 8] of the same compound?
**A.** 5.905% and 3.931%

**Q.** What about the autophagy induction [1, 9] of the same compound?
**A.** 4.872% and 1.792%

**Q.** What about the autophagy induction [1, 10] of the same compound?
**A.** 4.017% and -0.1457%

**Q.** What about the autophagy induction [1, 11] of the same compound?
**A.** -2.448% and 5.167%

**Q.** And the autophagy induction [1, 12]?
**A.** -0.5838% and 12.3967%

**Q.** And the autophagy induction [1, 13]?
**A.** -3.853% and 16.5093%

**Q.** And the autophagy induction [2, 14]?
**A.** -6.804%

**Q.** And the autophagy induction [2, 15]?
**A.** -1.218%

**Q.** And the autophagy induction [2, 16]?
**A.** -57.9641%

**Q.** What about the autophagy induction [2, 17] of the same compound?
**A.** 0.9422%

**Q.** What about the autophagy induction [2, 18] of the same compound?
**A.** -7.529%

**Q.** And the autophagy induction [2, 19]?
**A.** -0.8348%

**Q.** What about the autophagy induction [2, 20] of the same compound?
**A.** -57.3104%

**Q.** What about the autophagy induction [2, 21] of the same compound?
**A.** -0.1418%

**Q.** What about the autophagy induction [2, 22] of the same compound?
**A.** -2.903%

**Q.** What about the autophagy induction [2, 23] of the same compound?
**A.** -0.1533%

**Q.** And the autophagy induction [2, 24]?
**A.** -57.4385%

**Q.** What about the autophagy induction [2, 25] of the same compound?
**A.** 1.624%

**Q.** And the autophagy induction [3, 14]?
**A.** 14.7038%

**Q.** What about the autophagy induction [3, 15] of the same compound?
**A.** 0.5598%

**Q.** And the autophagy induction [3, 16]?
**A.** 0.6043%

**Q.** And the autophagy induction [3, 17]?
**A.** -0.5871%

**Q.** What about the autophagy induction [3, 18] of the same compound?
**A.** 18.1678%

**Q.** What about the autophagy induction [3, 19] of the same compound?
**A.** -0.878%

**Q.** And the autophagy induction [3, 20]?
**A.** -8.358%

**Q.** And the autophagy induction [3, 21]?
**A.** -12.0518%

**Q.** And the autophagy induction [3, 22]?
**A.** -0.9523%

**Q.** And the autophagy induction [3, 23]?
**A.** -16.8429%

**Q.** What about the autophagy induction [3, 24] of the same compound?
**A.** -21.0427%

**Q.** And the autophagy induction [3, 25]?
**A.** -26.9578%

— ChEMBL document CHEMBL5724696, “Autophagy assay results for EUbOPEN Chemogenomics Library” (2024)
